The record followed here is ChEMBL document CHEMBL3232736, “Antiproliferative activities of halogenated thieno[3,2-d]pyrimidines” (Bioorg Med Chem, 2014).

Molecules are shown by their SMILES. Converted amounts (≈) assume the structure as drawn. The source made the active and inactive calls. The rule behind the calls is not given here.

The subject of one data set is Escherichia coli. Nature of the data set: Antibacterial activity against Escherichia coli ATCC 25922 assessed as growth inhibition at 100 uM after 16 to 20 hrs by microbroth dilution method. The data set is classed as functional, organism-based. For orientation: Broth dilution looks for growth in wells or tubes with falling amounts of substance.
The test system of another data set is Enterococcus faecalis. Nature of the data set: Antibacterial activity against vancomycin-resistant Enterococcus faecalis ATCC 51299 assessed as growth inhibition at 100 uM after 16 to 20 hrs by microbroth dilution method. It is filed as functional, organism-based.
The subject of data set [1] is Cryptococcus neoformans. As to the kind of experiment: Antifungal activity against Cryptococcus neoformans JEC20 assessed as growth inhibition after 48 hrs by microbroth dilution method. The data set is classed as functional. Particulars: JEC20, 48 h.
In another data set the test system is Pseudomonas aeruginosa. As to the kind of experiment: Antibacterial activity against Pseudomonas aeruginosa ATCC 27853 assessed as growth inhibition at 100 uM after 16 to 20 hrs by microbroth dilution method. It is filed as functional, organism-based.
For the next data set, the system named is HEL. Nature of the data set: Cytotoxicity against human HEL cells assessed as reduction in cell number by cell counting assay. It is filed as functional.
Data set [2] deals with L1210. As to the kind of experiment: Induction of apoptosis in mouse L1210 cells assessed as early apoptosis at 5.4 uM after 48 hrs by Annexin-V/7-AAD staining-based flow cytometric analysis (rvb = 3.36%). It is filed as functional. On the technique in general: Flow cytometry measures light scatter and fluorescence of single cells or particles in a stream.
In data set [3] the test system is HeLa. As to the kind of experiment: Cytotoxicity against human HeLa cells assessed as reduction in cell number after 72 hrs by cell counting assay. It is filed as functional, cell-based.
In a further data set the test system is Vero. Nature of the data set: Cytotoxicity against African green monkey Vero cells assessed as reduction in cell number. It is filed as cell-based. Particulars: chlorocebus sabaeus.
Data set [4] relates to L1210. Nature of the data set: Cytotoxicity against mouse L1210 cells assessed as reduction in cell viability after 48 hrs by MTT assay. The data set is classed as functional, cell-based. Particulars: L1210, 48 h.
For data set [5], the system named is L1210. As to the kind of experiment: Cytotoxicity against mouse L1210 cells assessed as reduction in cell number after 48 hrs by cell counting assay. It is filed as functional, cell-based. Particulars: L1210, 48 h.
The next data set relates to Candida albicans. Nature of the data set: Antifungal activity against Candida albicans ATCC 10231 assessed as growth inhibition after 16 to 20 hrs by microbroth dilution method. The data set is classed as functional.
For data set [6], the system named is HeLa. As to the kind of experiment: Cytotoxicity against human HeLa cells assessed as reduction in cell number. The data set is classed as functional.
For another data set, the system named is Bacillus spizizenii. As to the kind of experiment: Antibacterial activity against Bacillus subtilis ATCC 6633 assessed as growth inhibition at 100 uM after 16 to 20 hrs by microbroth dilution method. It is filed as functional.
Data set [7] relates to L1210. As to the kind of experiment: Induction of apoptosis in mouse L1210 cells assessed as late apoptosis at 5.4 uM after 48 hrs by Annexin-V/7-AAD staining-based flow cytometric analysis (reference value: 4.46%). It is filed as functional.
Data set [8] concerns Cryptococcus neoformans. As to the kind of experiment: Antifungal activity against Cryptococcus neoformans B4546 assessed as growth inhibition after 48 hrs by microbroth dilution method. It is filed as functional. Particulars: B4546, 48 h.
Data set [9] concerns L1210. As to the kind of experiment: Cell cycle arrest in mouse L1210 cells at 5.4 uM after 24 to 48 hrs by propidium iodide staining-based flow cytometric analysis. The data set is classed as functional.
The subject of another data set is CCRF-CEM. Nature of the data set: Cytotoxicity against human CCRF-CEM cells assessed as reduction in cell number after 72 hrs by cell counting assay. The data set is classed as functional, cell-based.
Data set [10] relates to L1210. As to the kind of experiment: Induction of apoptosis in mouse L1210 cells assessed as necrotic cell level at 5.4 uM after 48 hrs by Annexin-V/7-AAD staining-based flow cytometric analysis (reference value: 8.13%). It is filed as functional.
The subject of the next data set is Staphylococcus aureus. Nature of the data set: Antibacterial activity against methicillin-resistant Staphylococcus aureus subsp. aureus ATCC 43300 assessed as growth inhibition at 100 uM after 16 to 20 hrs by microbroth dilution method. The data set is classed as functional, organism-based.
The test system of data set [11] is L1210. As to the kind of experiment: Induction of apoptosis in mouse L1210 cells assessed as viable cell level at 5.4 uM after 48 hrs by Annexin-V/7-AAD staining-based flow cytometric analysis (reference value: 83%). It is filed as functional.

Take `Clc1nc(Cl)c2scc(Br)c2n1`: the inhibition entry with Escherichia coli, in the data set on Enterococcus faecalis, with Pseudomonas aeruginosa, in the data set on Bacillus spizizenii and in the data set with Staphylococcus aureus was “inactive” each time. The MIC95 is 5.8 µM (≈ 1.65 µg/mL) in the data set with Cryptococcus neoformans [1], 10.7 µM (≈ 3.04 µg/mL) with Candida albicans and 7 µM (≈ 1.99 µg/mL) in the data set with Cryptococcus neoformans [8]. Also, the MIC99 in the data set on HEL, with Vero and with HeLa [6] was 20 µM (≈ 5.68 µg/mL) in each case. The Activity in the data set on L1210 [2] stood at 33.3%; with L1210 [7], 21.8%; in the data set on L1210 [10], 1.84%; with L1210 [11], 43.1%. Further, the IC50 in the data set on HeLa [3] was 4.3 µM; in the data set on L1210 [4] it was 5.4 µM; in the data set with L1210 [5], 5.4 µM; in the data set on CCRF-CEM it was 14 µM. Moreover, in the data set on L1210 [9], the outcome was inactive.

Usually IC50 stands for the point on the concentration scale where inhibition reaches its midpoint.
